Where “and” joins values, the source holds several entries; their conditions need not be identical. Equal values may be shown once.
How the values were obtained:
Settings in all cases: incubation time: 72 h
[1] = test system: MDA-MB-231; experiment: normalised viability (% of control), CellTiter-Blue; higher = more viable cells (100 = DMSO, 0 = benzethonium chloride kill control)
Protocol: (§1)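 DSRT, CellTiter-Blue viability, 72 h incubation. Signal is normalised to DMSO and benzethonium chloride controls. Value is the normalised response at dose 1.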

[2] = test system: CAL-148; experiment: as above
Protocol: as §1

[3] = test system: BT-549; experiment: as above
Protocol: as §1

[4] = test system: MDA-MB-453; experiment: as above
Protocol: as §1

[5] = test system: MFM-223; experiment: as above
Protocol: as §1

[6] = test system: DU-4475; experiment: as above
Protocol: as §1

[7] = test system: HCC1143; experiment: as above
Protocol: as §1

[8] = test system: SK-BR-3; experiment: as above
Protocol: as §1

[9] = test system: CAL-120; experiment: as above
Protocol: as §1

[10] = test system: MDA-MB-468; experiment: as above
Protocol: as §1

[11] = test system: CAL-51; experiment: as above
Protocol: as §1

[12] = test system: CAL-85-1; experiment: as above
Protocol: as §1

[13] = test system: HCC1937; experiment: as above
Protocol: as §1

[14] = test system: HCC1599; experiment: as above
Protocol: as §1

[15] = test system: Hs578T; experiment: normalised viability (% of control), CellTiter-Blue; higher = more viable cells (about 100 = DMSO control)
Protocol: (§2)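 DSRT, CellTiter-Blue viability, 72 h incubation. Signal is normalised to DMSO and benzethonium chloride controls. Value is the normalised response at dose 3.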

[16] = test system: CAL-148; experiment: as above
Protocol: as §2

[17] = test system: HDQ-P1; experiment: as above
Protocol: as §2

[18] = test system: BT-549; experiment: as above
Protocol: as §2

[19] = test system: MDA-MB-453; experiment: as above
Protocol: as §2

[20] = test system: BT-474; experiment: as above
Protocol: as §2

[21] = test system: MFM-223; experiment: as above
Protocol: as §2

[22] = test system: DU-4475; experiment: as above
Protocol: as §2

[23] = test system: HCC1143; experiment: as above
Protocol: as §2

[24] = test system: SK-BR-3; experiment: as above
Protocol: as §2

[25] = test system: MDA-MB-468; experiment: as above
Protocol: as §2

[26] = test system: CAL-51; experiment: as above
Protocol: as §2

[27] = test system: HCC1937; experiment: as above
Protocol: as §2

[28] = test system: HCC1599; experiment: as above
Protocol: as §2

[29] = test system: MDA-MB-436; experiment: as above
Protocol: as §2

[30] = test system: HDQ-P1; experiment: normalised viability (% of control), CellTiter-Blue; higher = more viable cells (100 = DMSO, 0 = benzethonium chloride kill control)
Protocol: as §1

[31] = test system: BT-474; experiment: as above
Protocol: as §1

[32] = test system: MDA-MB-231; experiment: normalised viability (% of control), CellTiter-Blue; higher = more viable cells (about 100 = DMSO control)
Protocol: as §2

Cc1ccc(NC(=O)c2ccc(CN3CCN(C)CC3)cc2)cc1Nc1nccc(-c2cccnc2)n1 [Imatinib]
normalised viability ([1]; 1 nM): 90.8% and 95.5% | normalised viability ([2]; 1 nM): 86.2% and 97.6% | normalised viability ([3]; 1 nM): 104% and 116% | normalised viability ([4]; 1 nM): 106% and 102% | normalised viability ([5]; 1 nM): 93.1% and 97.1% | normalised viability ([6]; 1 nM): 99% and 111% | normalised viability ([7]; 1 nM): 88.9% and 93% | normalised viability ([8]; 1 nM): 89.3% and 102% | normalised viability ([9]; 1 nM): 88.5% and 91% | normalised viability ([10]; 1 nM): 102% and 105% | normalised viability ([11]; 1 nM): 99.8% and 100% | normalised viability ([12]; 1 nM): 87.5% and 85.1% | normalised viability ([13]; 1 nM): 81.9% and 101% | normalised viability ([14]; 1 nM): 109% and 104% | normalised viability ([15]; 100 nM): 95.2% and 103% | normalised viability ([16]; 10 nM): 84.3% and 89% | normalised viability ([17]; 10 nM): 106% and 126% | normalised viability ([18]; 100 nM): 102% and 109% | normalised viability ([19]; 10 nM): 104% and 94.3% | normalised viability ([20]; 100 nM): 103% and 126% | normalised viability ([21]; 100 nM): 94.8% and 92.4% | normalised viability ([22]; 10 nM): 106% and 95.3% | normalised viability ([23]; 100 nM): 85.9% and 82.9% | normalised viability ([24]; 100 nM): 86.2% and 75.6% | normalised viability ([25]; 100 nM): 99.2% and 98% | normalised viability ([26]; 10 nM): 106% and 107% | normalised viability ([27]; 100 nM): 94.5% | normalised viability ([28]; 100 nM): 96.5% and 97.5% | normalised viability ([29]; 100 nM): 94.8% and 107%

CNNCc1ccc(C(=O)NC(C)C)cc1 [Procarbazine]
normalised viability ([1]; 1 nM): 112% | normalised viability ([2]; 1 nM): 108% | normalised viability ([30]; 1 nM): 120% | normalised viability ([3]; 1 nM): 113% | normalised viability ([4]; 1 nM): 110% | normalised viability ([31]; 1 nM): 92.5% | normalised viability ([5]; 1 nM): 102% | normalised viability ([6]; 1 nM): 110% | normalised viability ([7]; 1 nM): 103% | normalised viability ([8]; 1 nM): 106% | normalised viability ([9]; 1 nM): 97% | normalised viability ([10]; 1 nM): 104% | normalised viability ([11]; 1 nM): 100% | normalised viability ([12]; 1 nM): 92.4% | normalised viability ([13]; 1 nM): 78.9% | normalised viability ([14]; 1 nM): 84.6% | normalised viability ([32]; 100 nM): 105% | normalised viability ([15]; 100 nM): 104% | normalised viability ([16]; 10 nM): 98.1% | normalised viability ([17]; 10 nM): 128% | normalised viability ([18]; 100 nM): 111% | normalised viability ([19]; 10 nM): 105% | normalised viability ([20]; 100 nM): 114% | normalised viability ([21]; 100 nM): 92.8% | normalised viability ([22]; 10 nM): 112% | normalised viability ([23]; 100 nM): 98.7% | normalised viability ([24]; 100 nM): 92% | normalised viability ([25]; 100 nM): 102% | normalised viability ([26]; 10 nM): 109% | normalised viability ([27]; 100 nM): 85.3% | normalised viability ([28]; 100 nM): 94.8% | normalised viability ([29]; 100 nM): 97%

C/C(=C\c1csc(C)n1)[C@@H]1C[C@@H]2O[C@]2(C)CCC[C@H](C)[C@H](O)[C@@H](C)C(=O)C(C)(C)[C@@H](O)CC(=O)O1 [Patupilone]
normalised viability ([1]; 0.1 nM): 129% | normalised viability ([2]; 0.1 nM): 105% | normalised viability ([30]; 0.1 nM): 112% | normalised viability ([3]; 0.1 nM): 113% | normalised viability ([4]; 0.1 nM): 97.5% | normalised viability ([31]; 0.1 nM): 97.7% | normalised viability ([5]; 0.1 nM): 104% | normalised viability ([6]; 0.1 nM): 98.7% | normalised viability ([7]; 0.1 nM): 102% | normalised viability ([8]; 0.1 nM): 102% | normalised viability ([9]; 0.1 nM): 94.6% | normalised viability ([10]; 0.1 nM): 101% | normalised viability ([11]; 0.1 nM): 102% | normalised viability ([12]; 0.1 nM): 93.4% | normalised viability ([13]; 0.1 nM): 95.6% | normalised viability ([14]; 0.1 nM): 97.3% | normalised viability ([32]; 10 nM): 22.7% | normalised viability ([15]; 10 nM): 36.7% | normalised viability ([16]; 1 nM): 93.1% | normalised viability ([17]; 1 nM): 125% | normalised viability ([18]; 10 nM): 29.4% | normalised viability ([19]; 1 nM): 88.7% | normalised viability ([20]; 10 nM): 66.4% | normalised viability ([21]; 10 nM): 81.3% | normalised viability ([22]; 1 nM): 95.4% | normalised viability ([23]; 10 nM): 66% | normalised viability ([24]; 10 nM): 28.4% | normalised viability ([25]; 10 nM): 54.4% | normalised viability ([26]; 1 nM): 104% | normalised viability ([27]; 10 nM): 25.5% | normalised viability ([28]; 10 nM): 111% | normalised viability ([29]; 10 nM): 66.2%

CO[C@H]1C[C@@H]2CC[C@@H](C)[C@@](O)(O2)C(=O)C(=O)N2CCCC[C@H]2C(=O)O[C@H]([C@H](C)C[C@@H]2CC[C@@H](OCCO)[C@H](OC)C2)CC(=O)[C@H](C)/C=C(\C)[C@@H](O)[C@@H](OC)C(=O)[C@H](C)C[C@H](C)/C=C/C=C/C=C/1C [Everolimus]
normalised viability ([1]; 0.1 nM): 94.9% and 73.3% | normalised viability ([2]; 0.1 nM): 93.9% and 95.7% | normalised viability ([30]; 0.1 nM): 87.3% and 89.8% | normalised viability ([3]; 0.1 nM): 81% and 93% | normalised viability ([4]; 0.1 nM): 93.7% and 90% | normalised viability ([5]; 0.1 nM): 85% and 84% | normalised viability ([6]; 0.1 nM): 106% and 105% | normalised viability ([8]; 0.1 nM): 95.7% and 89.7% | normalised viability ([9]; 0.1 nM): 97.4% and 80.8% | normalised viability ([10]; 0.1 nM): 105% and 87.7% | normalised viability ([11]; 0.1 nM): 99.3% and 104% | normalised viability ([12]; 0.1 nM): 89.2% and 76.6% | normalised viability ([13]; 0.1 nM): 58% and 70.5% | normalised viability ([14]; 0.1 nM): 101% | normalised viability ([32]; 10 nM): 92.7% and 69.3% | normalised viability ([15]; 10 nM): 42.7% and 48.8% | normalised viability ([16]; 1 nM): 65.8% and 59.4% | normalised viability ([17]; 1 nM): 80.8% and 75% | normalised viability ([18]; 10 nM): 66.5% and 53.2% | normalised viability ([19]; 1 nM): 44.9% and 39.9% | normalised viability ([20]; 10 nM): 65.6% and 61.3% | normalised viability ([21]; 10 nM): 55.1% and 49% | normalised viability ([22]; 1 nM): 96.6% and 83.4% | normalised viability ([24]; 10 nM): 48.1% and 51.2% | normalised viability ([25]; 10 nM): 84.1% and 59.7% | normalised viability ([26]; 1 nM): 70.1% and 73.5% | normalised viability ([27]; 10 nM): 60.5% and 63.5% | normalised viability ([28]; 10 nM): 81.1% and 87.6% | normalised viability ([29]; 10 nM): 86% and 80.2%

CC(C)(C#N)c1cc(Cn2cncn2)cc(C(C)(C)C#N)c1 [Anastrozole]
normalised viability ([1]; 1 nM): 91.7% | normalised viability ([2]; 1 nM): 99% | normalised viability ([30]; 1 nM): 101% | normalised viability ([3]; 1 nM): 122% | normalised viability ([4]; 1 nM): 98.4% | normalised viability ([31]; 1 nM): 73.5% | normalised viability ([5]; 1 nM): 98.8% | normalised viability ([6]; 1 nM): 94% | normalised viability ([7]; 1 nM): 83.4% | normalised viability ([8]; 1 nM): 97.7% | normalised viability ([9]; 1 nM): 88.8% | normalised viability ([10]; 1 nM): 97.9% | normalised viability ([11]; 1 nM): 108% | normalised viability ([12]; 1 nM): 94.1% | normalised viability ([13]; 1 nM): 94.6% | normalised viability ([14]; 1 nM): 107% | normalised viability ([32]; 100 nM): 92.7% | normalised viability ([15]; 100 nM): 88.4% | normalised viability ([16]; 10 nM): 86.8% | normalised viability ([17]; 10 nM): 99.2% | normalised viability ([18]; 100 nM): 95.7% | normalised viability ([19]; 10 nM): 97.7% | normalised viability ([20]; 100 nM): 101% | normalised viability ([21]; 100 nM): 94.2% | normalised viability ([22]; 10 nM): 98.6% | normalised viability ([23]; 100 nM): 100% | normalised viability ([24]; 100 nM): 77.3% | normalised viability ([25]; 100 nM): 107% | normalised viability ([26]; 10 nM): 109% | normalised viability ([27]; 100 nM): 93.1% | normalised viability ([28]; 100 nM): 102% | normalised viability ([29]; 100 nM): 96%

Cc1cc2c(C(C)C)c(O)c(O)c(C=O)c2c(O)c1-c1c(C)cc2c(C(C)C)c(O)c(O)c(C=O)c2c1O [Gossypol]
normalised viability ([32]; 1000 nM): 93.6% | normalised viability ([15]; 1000 nM): 100% | normalised viability ([16]; 100 nM): 105% | normalised viability ([17]; 100 nM): 126% | normalised viability ([18]; 1000 nM): 95% | normalised viability ([19]; 100 nM): 110% | normalised viability ([20]; 1000 nM): 113% | normalised viability ([21]; 1000 nM): 96.5% | normalised viability ([22]; 100 nM): 99.7% | normalised viability ([23]; 1000 nM): 98.2% | normalised viability ([24]; 1000 nM): 92.9% | normalised viability ([25]; 1000 nM): 58.1% | normalised viability ([26]; 100 nM): 96.5% | normalised viability ([27]; 1000 nM): 91.7% | normalised viability ([28]; 1000 nM): 97% | normalised viability ([29]; 1000 nM): 96.2%

Reference: the supplement of paper PMC4862054
